Drawing on ChEMBL document CHEMBL4118135, “Optimized allosteric inhibition of engineered protein tyrosine phosphatases with an expanded palette of biarsenical small molecules” (Bioorg Med Chem, 2018), this text covers inhibition for 8 molecules.

Experiment [1] has as its system Tyrosine-protein phosphatase non-receptor type 7 (Homo sapiens), P35236 [UNDEFINED MUTATION]. Nature of the experiment: Inhibition of allosterically sensitized mutant form of His6-tagged human wild-type HePTP catalytic domain at 1.92 uM using pNPP as substrate incubated for 90 mins by quenched phosphatase activity assay.
Experiment [2] deals with T1, Tyrosine-protein phosphatase non-receptor type 1 (Homo sapiens), P18031 [P87C,A122C].
T1 sequence (whole entry): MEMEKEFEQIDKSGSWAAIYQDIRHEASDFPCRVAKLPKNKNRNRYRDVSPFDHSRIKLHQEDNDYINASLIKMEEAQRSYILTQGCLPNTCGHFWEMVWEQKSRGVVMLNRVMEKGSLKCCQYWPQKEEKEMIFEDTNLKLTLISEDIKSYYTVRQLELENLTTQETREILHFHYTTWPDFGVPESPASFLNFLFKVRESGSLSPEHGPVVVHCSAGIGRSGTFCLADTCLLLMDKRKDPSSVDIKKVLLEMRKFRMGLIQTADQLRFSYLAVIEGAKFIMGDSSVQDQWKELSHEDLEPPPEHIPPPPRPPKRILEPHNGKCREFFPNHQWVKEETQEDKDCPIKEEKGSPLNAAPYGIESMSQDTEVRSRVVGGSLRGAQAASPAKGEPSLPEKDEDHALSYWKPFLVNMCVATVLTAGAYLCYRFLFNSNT
Nature of the experiment: Inhibition of allosterically sensitized His6-tagged human PTP1B catalytic domain P87C/A122C mutant at 250 nM using pNPP as substrate incubated for 90 mins by quenched phosphatase activity assay.

Experiment [3] relates to T2, Tyrosine-protein phosphatase non-receptor type 7 (Homo sapiens), P35236 [P171C,V205C].
T2 sequence (whole entry): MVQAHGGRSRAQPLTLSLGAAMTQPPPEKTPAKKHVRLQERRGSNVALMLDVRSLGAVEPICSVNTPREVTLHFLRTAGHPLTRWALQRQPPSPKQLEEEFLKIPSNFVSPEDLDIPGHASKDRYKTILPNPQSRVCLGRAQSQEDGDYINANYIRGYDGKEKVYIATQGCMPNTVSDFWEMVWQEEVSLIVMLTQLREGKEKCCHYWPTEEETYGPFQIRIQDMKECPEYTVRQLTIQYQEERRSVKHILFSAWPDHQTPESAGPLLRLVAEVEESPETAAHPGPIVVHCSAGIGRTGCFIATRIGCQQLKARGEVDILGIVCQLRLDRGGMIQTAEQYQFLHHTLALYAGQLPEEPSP
The experiment can be described thus: Inhibition of allosterically sensitized mutant form of His6-tagged human HePTP catalytic domain using pNPP as substrate incubated for 90 mins by quenched phosphatase activity assay.

The test system is the same in experiment [4]. The experiment can be described thus: Inhibition of allosterically sensitized mutant form of His6-tagged human HePTP catalytic domain at 1 uM using pNPP as substrate measured up to 10 mins by quenched phosphatase activity assay.
Experiment [5] concerns the target T3, Tyrosine-protein phosphatase non-receptor type 7 (Homo sapiens) (UniProt P35236).
T3 sequence (whole entry): T2 sequence (whole entry) with C171P, C205V
Nature of the experiment: Inhibition of His6-tagged human wild-type HePTP catalytic domain at 1 uM using pNPP as substrate incubated for 90 mins by quenched phosphatase activity assay.

Experiment [6] deals with Tyrosine-protein phosphatase non-receptor type 13 (Homo sapiens) (UniProt Q12923). Nature of the experiment: Inhibition of allosterically sensitized mutant form of His6-tagged human FAP1 catalytic domain at 500 nM using pNPP as substrate incubated for 90 mins by quenched phosphatase activity assay.
Chain of Tyrosine-protein phosphatase non-receptor type 13 (Homo sapiens) (Q12923 whole entry, the tested form may be a part): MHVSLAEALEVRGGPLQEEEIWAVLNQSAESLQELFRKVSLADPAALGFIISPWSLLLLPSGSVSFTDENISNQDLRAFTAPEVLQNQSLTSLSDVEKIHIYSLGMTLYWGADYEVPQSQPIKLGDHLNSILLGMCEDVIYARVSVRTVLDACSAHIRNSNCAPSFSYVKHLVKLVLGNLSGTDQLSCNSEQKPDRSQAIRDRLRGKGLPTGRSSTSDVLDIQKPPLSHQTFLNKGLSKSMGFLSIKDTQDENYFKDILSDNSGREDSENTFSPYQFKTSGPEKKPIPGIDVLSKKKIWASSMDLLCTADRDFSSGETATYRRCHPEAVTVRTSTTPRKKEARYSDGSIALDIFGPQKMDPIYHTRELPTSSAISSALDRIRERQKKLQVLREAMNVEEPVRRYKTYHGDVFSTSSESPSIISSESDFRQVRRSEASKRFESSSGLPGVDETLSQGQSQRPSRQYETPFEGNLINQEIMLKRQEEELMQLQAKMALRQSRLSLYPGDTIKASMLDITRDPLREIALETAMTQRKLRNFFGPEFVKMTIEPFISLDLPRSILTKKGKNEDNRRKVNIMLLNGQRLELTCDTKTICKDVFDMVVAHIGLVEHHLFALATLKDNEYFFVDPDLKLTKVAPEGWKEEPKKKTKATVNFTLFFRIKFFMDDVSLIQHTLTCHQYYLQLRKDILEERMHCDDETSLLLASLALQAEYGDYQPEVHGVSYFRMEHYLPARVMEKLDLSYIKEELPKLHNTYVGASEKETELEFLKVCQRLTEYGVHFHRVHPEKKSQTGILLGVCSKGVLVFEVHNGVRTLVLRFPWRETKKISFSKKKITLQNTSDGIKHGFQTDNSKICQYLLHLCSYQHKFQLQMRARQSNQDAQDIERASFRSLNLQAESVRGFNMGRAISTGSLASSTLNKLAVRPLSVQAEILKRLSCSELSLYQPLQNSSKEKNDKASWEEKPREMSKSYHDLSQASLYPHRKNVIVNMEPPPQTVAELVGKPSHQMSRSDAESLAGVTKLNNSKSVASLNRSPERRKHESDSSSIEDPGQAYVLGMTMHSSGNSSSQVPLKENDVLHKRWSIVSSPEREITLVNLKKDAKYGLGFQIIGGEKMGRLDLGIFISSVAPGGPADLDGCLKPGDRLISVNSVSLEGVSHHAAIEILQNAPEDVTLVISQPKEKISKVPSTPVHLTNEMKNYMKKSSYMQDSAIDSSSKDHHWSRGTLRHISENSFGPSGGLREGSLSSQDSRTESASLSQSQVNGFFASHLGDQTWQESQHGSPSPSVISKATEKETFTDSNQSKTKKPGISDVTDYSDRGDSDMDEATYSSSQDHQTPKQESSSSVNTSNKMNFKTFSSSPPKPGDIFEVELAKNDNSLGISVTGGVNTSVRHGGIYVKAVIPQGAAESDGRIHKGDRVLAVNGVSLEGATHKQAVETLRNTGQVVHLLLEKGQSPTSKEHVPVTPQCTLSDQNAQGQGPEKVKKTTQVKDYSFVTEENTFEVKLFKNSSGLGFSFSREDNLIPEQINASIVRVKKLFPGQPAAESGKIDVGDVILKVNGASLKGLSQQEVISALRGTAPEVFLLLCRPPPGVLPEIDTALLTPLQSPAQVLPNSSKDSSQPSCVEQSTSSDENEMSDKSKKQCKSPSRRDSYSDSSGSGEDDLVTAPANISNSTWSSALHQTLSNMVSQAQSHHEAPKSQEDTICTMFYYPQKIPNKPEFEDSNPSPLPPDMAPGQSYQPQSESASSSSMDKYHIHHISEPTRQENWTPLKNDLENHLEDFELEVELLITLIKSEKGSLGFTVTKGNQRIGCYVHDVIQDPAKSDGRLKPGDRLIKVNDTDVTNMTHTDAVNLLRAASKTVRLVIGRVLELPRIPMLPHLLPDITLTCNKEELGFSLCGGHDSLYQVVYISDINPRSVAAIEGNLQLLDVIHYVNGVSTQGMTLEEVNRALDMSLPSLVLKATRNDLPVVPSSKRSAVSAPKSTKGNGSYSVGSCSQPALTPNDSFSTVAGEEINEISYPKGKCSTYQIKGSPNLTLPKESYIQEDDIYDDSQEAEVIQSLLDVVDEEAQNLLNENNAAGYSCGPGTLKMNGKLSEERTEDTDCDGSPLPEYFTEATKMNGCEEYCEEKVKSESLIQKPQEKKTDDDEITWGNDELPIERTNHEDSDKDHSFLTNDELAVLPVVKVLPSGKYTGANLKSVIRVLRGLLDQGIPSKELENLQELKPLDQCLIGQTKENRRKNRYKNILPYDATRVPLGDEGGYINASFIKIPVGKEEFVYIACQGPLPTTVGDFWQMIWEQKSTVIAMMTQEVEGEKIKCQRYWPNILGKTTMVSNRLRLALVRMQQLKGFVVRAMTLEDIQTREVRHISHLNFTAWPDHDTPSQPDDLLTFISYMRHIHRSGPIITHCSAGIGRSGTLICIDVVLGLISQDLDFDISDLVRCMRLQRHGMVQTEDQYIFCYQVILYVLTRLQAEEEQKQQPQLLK
The species named for another experiment is Homo sapiens. Nature of the experiment: Inhibition of His6-tagged human wild-type PTP catalytic domain at 500 nM using pNPP as substrate incubated for 90 mins by quenched phosphatase activity assay.
Experiment [7] addresses Tyrosine-protein phosphatase non-receptor type 6 (Homo sapiens) (UniProt P29350). The experiment can be described thus: Inhibition of allosterically sensitized mutant form of His6-tagged human SHP1 catalytic domain at 500 nM using pNPP as substrate incubated for 90 mins by quenched phosphatase activity assay.
The subject of experiment [8] is T2, Tyrosine-protein phosphatase non-receptor type 7 (Homo sapiens), P35236 [P171C,V205C]. The experiment can be described thus: Inhibition of allosterically sensitized mutant form of His6-tagged human HePTP catalytic domain at 500 nM using pNPP as substrate incubated for 90 mins by quenched phosphatase activity assay.
The target of experiment [9] is T4, Tyrosine-protein phosphatase non-receptor type 11 (Homo sapiens) (UniProt Q06124).
T4 sequence (whole entry): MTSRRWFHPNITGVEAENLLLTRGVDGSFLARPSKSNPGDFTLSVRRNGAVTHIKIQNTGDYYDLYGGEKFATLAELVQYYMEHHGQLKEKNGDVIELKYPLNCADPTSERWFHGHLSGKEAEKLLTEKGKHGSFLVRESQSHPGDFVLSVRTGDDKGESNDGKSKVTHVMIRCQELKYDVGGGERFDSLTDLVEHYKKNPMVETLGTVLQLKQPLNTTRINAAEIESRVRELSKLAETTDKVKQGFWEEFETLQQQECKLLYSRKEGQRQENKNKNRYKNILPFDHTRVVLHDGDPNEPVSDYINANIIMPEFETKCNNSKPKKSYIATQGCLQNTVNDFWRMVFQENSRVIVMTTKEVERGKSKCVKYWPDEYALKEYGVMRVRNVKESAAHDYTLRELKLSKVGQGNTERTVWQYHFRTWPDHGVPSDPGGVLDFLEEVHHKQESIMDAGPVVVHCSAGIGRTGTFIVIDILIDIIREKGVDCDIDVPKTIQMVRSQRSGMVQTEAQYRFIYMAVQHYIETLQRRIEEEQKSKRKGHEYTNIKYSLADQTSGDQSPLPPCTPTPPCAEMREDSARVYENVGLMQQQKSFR
Nature of the experiment: Inhibition of allosterically sensitized mutant form of His6-tagged human SHP2 containing SHP1 and […] SH2 domain at 500 nM at 500 nM using pNPP as substrate incubated for 90 mins by quenched phosphatase activity assay.

Experiment [10] has as its target T4, Tyrosine-protein phosphatase non-receptor type 11 (Homo sapiens). Nature of the experiment: Inhibition of allosterically sensitized mutant form of His6-tagged human SHP2 catalytic domain at 500 nM at 500 nM using pNPP as substrate incubated for 90 mins by quenched phosphatase activity assay.

Where a chain is given by its changes, count along the chain named. The source made the active and inactive calls. The calls are words filed in the database; no cut-off is given here.

Chain of Tyrosine-protein phosphatase non-receptor type 7 (Homo sapiens), P35236 [UNDEFINED MUTATION] (P35236 whole entry, looked up, stated change not applied, the tested form may be a part): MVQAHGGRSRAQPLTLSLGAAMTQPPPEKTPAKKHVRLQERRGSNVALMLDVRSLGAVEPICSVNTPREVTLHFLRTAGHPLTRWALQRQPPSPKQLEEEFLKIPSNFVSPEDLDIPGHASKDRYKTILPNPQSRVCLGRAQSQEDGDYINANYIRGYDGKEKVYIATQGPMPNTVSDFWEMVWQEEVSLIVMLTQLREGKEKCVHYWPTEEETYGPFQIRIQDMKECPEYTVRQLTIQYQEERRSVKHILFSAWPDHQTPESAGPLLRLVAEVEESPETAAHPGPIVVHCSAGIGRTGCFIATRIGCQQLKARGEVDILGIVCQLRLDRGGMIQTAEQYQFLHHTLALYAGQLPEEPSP
Chain of Tyrosine-protein phosphatase non-receptor type 6 (Homo sapiens) (P29350 whole entry, the tested form may be a part): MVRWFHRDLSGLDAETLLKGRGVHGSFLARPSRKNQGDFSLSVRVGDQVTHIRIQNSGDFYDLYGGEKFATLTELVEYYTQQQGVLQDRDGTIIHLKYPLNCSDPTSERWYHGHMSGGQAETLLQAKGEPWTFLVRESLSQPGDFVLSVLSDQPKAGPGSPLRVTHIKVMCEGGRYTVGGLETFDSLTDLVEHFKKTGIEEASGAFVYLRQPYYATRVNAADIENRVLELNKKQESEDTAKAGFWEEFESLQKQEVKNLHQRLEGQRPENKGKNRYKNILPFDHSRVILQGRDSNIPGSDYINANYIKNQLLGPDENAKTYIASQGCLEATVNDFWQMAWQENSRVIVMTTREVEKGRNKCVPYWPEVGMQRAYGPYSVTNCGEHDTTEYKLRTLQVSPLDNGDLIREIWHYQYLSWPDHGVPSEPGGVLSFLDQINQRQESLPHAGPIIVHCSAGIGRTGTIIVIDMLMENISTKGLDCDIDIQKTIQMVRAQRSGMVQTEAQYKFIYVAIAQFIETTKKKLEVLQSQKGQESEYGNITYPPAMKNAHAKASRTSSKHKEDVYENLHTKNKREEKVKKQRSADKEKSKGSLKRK

With `O=C(O)c1c(F)c(F)c(F)c(F)c1-c1c2ccc(=O)c([As]3SCCS3)c-2oc2c([As]3SCCS3)c(O)ccc12`, in experiment [1], the inhibition result is “Active”.
On the same count and under the same terms, the result for `O=C(O)c1ccccc1-c1c2cc(F)c(=O)c([As]3SCCS3)c-2oc2c([As]3SCCS3)c(O)c(F)cc12` reads “Active”.
Still for that read-out and setting: the result for `O=C(O)c1ccc(-c2c3ccc(=O)c([As]4SCCS4)c-3oc3c([As]4SCCS4)c(O)ccc23)c(C(=O)O)c1` reads “Active”.
Turning to `O=c1ccc2nc3ccc(O)c([As]4SCCS4)c3oc-2c1[As]1SCCS1`, the inhibition entry (in experiment [2]; in [6]; in the experiment listed under Homo sapiens; in [7]; in [8]) was “Active” in each case. The results for the inhibition entry in experiment [3] and in experiment [4] were “Dose-dependent effect” and 50%, respectively. The inhibition entry in experiment [5] was “inactive”.
For `O=C(O)c1ccccc1-c1c2cc(Cl)c(=O)c([As]3SCCS3)c-2oc2c([As]3SCCS3)c(O)c(Cl)cc12`, in [1], the inhibition result was “Active”.
In the case of `CC1(C)C(/C=C/C=C/C=C2/N(CCCCS(=O)(=O)O)c3ccc([As]4SCCS4)cc3C2(C)C)=[N+](CCCCS(=O)(=O)O)c2ccc([As]3SCCS3)cc21`, the inhibition entry (in [2]; in experiment [6]; in the experiment filed under Homo sapiens; in [7]; in [8]) was “Active” each time. The inhibition entry in experiment [9] and in experiment [10] was “inactive” throughout.
Take `CCc1cc2c(-c3ccccc3C(=O)O)c3cc(CC)c(=O)c([As]4SCCS4)c-3oc2c([As]2SCCS2)c1O`: the inhibition entry in experiment [1] was “Active”.
`CCCCNC(=O)c1ccc(-c2c3ccc(=O)c([As]4SCCS4)c-3oc3c([As]4SCCS4)c(O)ccc23)c(C(=O)O)c1`: the inhibition result in experiment [1] was “Active”.

What is called inhibition is the percentage by which the read-out fell short of the control.
